Results published in US20140107170A1, “COMPOSITION COMPRISING ANGIOTENSIN II RECEPTOR ANTAGONIST AND ANTIOXIDANT FOR MAINTAINING AND/OR IMPROVING SKIN PROPERTIES” (priority 2011, published 2014).

System: Dermal fibroblast cells
Assay: Dermal fibroblast survival under oxidative stress (H2O2), MTS viability test, Example 3
Format: cell-based
Conditions: preincubation till the next day, H2O2 (1 mmol) 15 minutes, MTS after 24 hours, valsartan 1.0 μmol, vitamin A 1 μmol, vitamin C 100 μmol, vitamin E 10 μmol
Method: Dermal fibroblast cells were grown in Advanced MEM supplemented with antibiotics (penicillin-streptomycin), 5% fetal bovine serum and L-glutamine (2 mmol/l) at 37° C. in a CO2 incubator (5% CO2, 95% air, 95% relative humidity. Cells were detached with Tryple™select. For experiments the cells were seeded in 96-well microtitre plates at a density 5×10^3 cells/well (5×10^4 cells/ml). Two hours after seeding, when the cells attached to the surface, the medium was replaced with the medium supplemented with vitamins (ACE), valsartan or their combination. The cells were incubated till the next day and then treated with H2O2 (1 mmol) for 15 minutes. After the treatment with H2O2 the cells were washed three times with PBS and than incubated in medium for 24 hours. Then the MTS viability test was performed.

Q: How did the “% of survival after treatment with H2O2” value turn out when `CCCCC(=O)N(Cc1ccc(-c2ccccc2-c2nnn[nH]2)cc1)[C@H](C(=O)O)C(C)C` [Valsartan, valsartan] was run?
A: 79%

Q: What about the “% of survival after treatment with H2O2” value (listed as valsartan) of the same molecule?
A: 79%
